Experimental data from patent US6603044B1, “Phthalamide derivatives, or salt thereof agrohorticultural insecticide, and method for using the same” (Nihon Nohyaku Co., Ltd., priority 1998, dated 2003).

Key:
Type in all cases: in vivo
[1] = system: Diamond Back Moth (Plutella xylostella); assay: Insecticidal effect on diamond back moth (Test Example 1); conditions: 50 ppm; Chinese cabbage seedling with deposited eggs immersed about 30 seconds; 25° C.; six days after the immersion
Source text: Insecticidal Effect on Diamond Back Moth (Plutella xylostella)
Adult diamondback moths were released and allowed to oviposit on a Chinese cabbage seedling. Two days after the release, the seedling having the eggs deposited thereon was immersed for about 30 seconds in a liquid chemical prepared by diluting a preparation containing each compound listed in Table 1, 2 or 3 as an active ingredient to adjust the concentration to 50 ppm. After air-dryness, it was allowed to stand in a room thermostatted at 25° C. Six days after the immersion, the hatched insects were counted. The mortality was calculated according to the following equation and the insecticidal effect was judged according to the criterion shown below. The test was carried out with triplicate groups of 10 insects.

[2] = system: Common Cutworm (Spodoptera Litura); assay: Insecticidal effect on common cutworm (Test Example 2); conditions: 50 ppm; cabbage leaf immersed about 30 seconds; second-instar larvae; 25° C.; eight days after the inoculation
Source text: Insecticidal Effect on Common Cutworm (Spodoptera Litura)
A piece of cabbage leaf (cultivar; Shikidori) was immersed for about 30 seconds in a liquid chemical prepared by diluting a preparation containing each compound listed in Table 1, 2 or 3 as an active ingredient to adjust the concentration to 50 ppm. After air-dryness, it was placed in a plastic Petri dish with a diameter of 9 cm and inoculated with second-instar larvae of common cutworm, after which the dish was closed and then allowed to stand in a room thermostatted at 25° C. Eight days after the inoculation, the dead and alive were counted. The mortality was calculated according to the following equation and the insecticidal effect was judged according to the criterion shown in Test Example 1. The test was carried out with triplicate groups of 10 insects. [formula]

[3] = system: Smaller tea Tortrix (Adoxophyes sp.); assay: Insecticidal effect on smaller tea tortrix (Test Example 3); conditions: 50 ppm; tea leaf immersed 30 seconds; larvae; 25° C., humidity 70%; eight days after the inoculation
Method: Insecticidal Effect on Smaller tea Tortrix (Adoxophyes sp.)
A leaf of tea tree was immersed for 30 seconds in a liquid chemical containing each compound listed in Table 1, 2 or 3 as an active ingredient to adjust the concentration to 50 ppm. After air-dryness, the leaf was transferred to a plastic dish with a diameter of 9 cm and inoculated with larval smaller tea tortrix. Then, the leaf was allowed to stand in a room thermostatted at 25° C. at a humidity of 70%. Eight days after the inoculation, the dead and alive were counted, and the insecticidal effect was judged according to the same criterion as mentioned in Test Example 1. The test was carried out with triplicate groups of 10 insects.

Compound	Test Example 1 insecticidal effect (mortality) [1]	Test Example 2 insecticidal effect (mortality) [2]	Test Example 3 insecticidal effect (mortality) [3]
CCN(CCSC)C(=O)c1c(F)cccc1C(=O)Nc1ccc(C(F)(C(F)(F)F)C(F)(F)F)cc1C [2-5]	A (100)	C (89-80)	–
CCN(CCCSC)C(=O)c1c(F)cccc1C(=O)Nc1ccc(C(F)(C(F)(F)F)C(F)(F)F)cc1C [2-6]	A (100)	D (79-50)	–
CCN(CSC)C(=O)c1c(Cl)cccc1C(=O)Nc1ccc(C(F)(C(F)(F)F)C(F)(F)F)cc1C [2-8]	A (100)	A (100)	–
CCN(CSC)C(=O)c1c(Cl)cccc1C(=O)Nc1ccc(OC(F)(F)C(F)(F)F)cc1C [2-17]	A (100)	A (100)	–
Cc1cc(C(F)(F)C(F)(F)F)ccc1NC(=O)c1cccc(I)c1C(=O)N1CCSC1 [3-1]	A (100)	A (100)	–
CSCC(C)NC(=O)c1c(C(=O)Nc2ccc(C(F)(C(F)(F)F)C(F)(F)F)cc2C)cccc1S(C)(=O)=O (stereo not drawn) [Compound No. 191, N^1-(4-Heptafluoroisopropyl-2-methylphenyl)-N^2-(1-methyl-2-methylthioethyl)-3-methylsulfonylphthalamide]	A (100)	A (100)	–
Cc1cc(OC(F)(F)F)ccc1NC(=O)c1cccc(I)c1C(=O)NC(C)CSC(C)C (stereo not drawn) [compound 5]	A (100)	A (100)	–
Cc1cc(OC(F)(F)F)ccc1NC(=O)c1cccc(I)c1C(=O)NC(C)CSc1ccccn1 (stereo not drawn) [compound 74]	A (100)	D (79-50)	–
Cc1cc(OC(F)(F)F)ccc1NC(=O)c1cccc(Br)c1C(=O)NC(C)C[S+](C)[O-] (stereo not drawn) [compound 87]	A (100)	C (89-80)	–
Cc1cc(OC(F)(F)F)ccc1NC(=O)c1cccc(Br)c1C(=O)NC(C)CS(C)(=O)=O (stereo not drawn) [compound 88]	A (100)	C (89-80)	–
CC(CS(C)(=O)=O)NC(=O)c1c(I)cccc1C(=O)Nc1cc2c(cc1Cl)OC(F)C(F)(F)O2 (stereo not drawn) [compound 102]	A (100)	A (100)	–
CSCC(C)NC(=O)c1cc(I)ccc1C(=O)Nc1ccc(C(F)(F)C(F)(F)F)cc1C (stereo not drawn) [compound 108]	A (100)	A (100)	–
CSCC(C)NC(=O)c1cccc(Cl)c1C(=O)Nc1ccc(C(F)(F)C(F)(F)F)cc1C (stereo not drawn) [compound 115]	A (100)	A (100)	–
Cc1cc(C(F)(F)C(F)(F)F)ccc1NC(=O)c1cccc(I)c1C(=O)NC(C)CCC[S+](C)[O-] (stereo not drawn) [compound 133]	A (100)	A (100)	–
Cc1cc(OC(F)(F)F)ccc1NC(=O)c1cccc(I)c1C(=O)NC(C)CS(=O)(=O)C(C)(C)C (stereo not drawn) [compound 139]	A (100)	A (100)	–
CSC1CCCCC1NC(=O)c1c(I)cccc1C(=O)Nc1ccc(C(F)(C(F)(F)F)C(F)(F)F)cc1C (stereo not drawn) [compound 273]	A (100)	–	C (89-80)
Cc1cc(OC(F)(F)F)ccc1NC(=O)c1ccc2c(c1C(=O)NC(C)(C)CS(C)(=O)=O)OC(F)(F)O2 [compound 293]	A (100)	–	A (100)
CSCNC(=O)c1ccccc1C(=O)Nc1ccc(C(F)(C(F)(F)F)C(F)(F)F)cc1C [compound 298]	A (100)	–	A (100)
Cc1cc(C(F)(C(F)(F)F)C(F)(F)F)ccc1NC(=O)c1cccc(I)c1C(=O)NC(C)CSC(=S)N(C)C (stereo not drawn) [compound 302]	A (100)	–	A (100)
Cc1cc(C(F)(C(F)(F)F)C(F)(F)F)ccc1NC(=O)c1cccc(I)c1C(=O)NC(C)CSc1nc2ccccc2s1 (stereo not drawn) [compound 319]	A (100)	–	A (100)

Compound	Test Example 1 insecticidal effect (mortality) [1]	Test Example 2 insecticidal effect (mortality) [2]	Test Example 3 insecticidal effect (mortality) [3]
CSCC(C)(C)NC(=O)c1c(C(=O)Nc2ccc(Cl)cc2Cl)cccc1[N+](=O)[O-] [compound 326]	A (100)	–	A (100)
Cc1cc(C(F)(C(F)(F)F)C(F)(F)F)ccc1NC(=O)c1cccc([N+](=O)[O-])c1C(=O)NC(C)(C)C[S+](C)[O-] (stereo not drawn) [compound 327]	A (100)	–	A (100)
CSC1CCCC1NC(=O)c1c(I)cccc1C(=O)Nc1ccc(C(F)(C(F)(F)F)C(F)(F)F)cc1C (stereo not drawn) [compound 329]	A (100)	–	A (100)
CSCC(C)NC(=O)c1cc2ccccc2cc1C(=O)Nc1ccc(C(F)(C(F)(F)F)C(F)(F)F)cc1C (stereo not drawn) [compound 332]	A (100)	–	A (100)
Cc1cc(C(F)(C(F)(F)F)C(F)(F)F)ccc1NC(=O)c1ccc2ccccc2c1C(=O)NC(C)C[S+](C)[O-] (stereo not drawn) [compound 334]	A (100)	–	A (100)
Cc1cc(C(F)(C(F)(F)F)C(F)(F)F)ccc1NC(=O)c1ccc2ccccc2c1C(=O)NC(C)CS(C)(=O)=O (stereo not drawn) [compound 335]	A (100)	–	D (79-50)
Cc1cc(C(F)(C(F)(F)F)C(F)(F)F)ccc1NC(=O)c1cccc(I)c1C(=O)NC(C)C[S+]([O-])c1nc2ccccc2s1 (stereo not drawn) [compound 344]	A (100)	–	A (100)
Cc1cc(C(F)(C(F)(F)F)C(F)(F)F)ccc1NC(=O)c1cccc(I)c1C(=O)NC(C)CSc1nccs1 (stereo not drawn) [compound 352]	A (100)	–	A (100)
Cc1nnc(SCC(C)NC(=O)c2c(I)cccc2C(=O)Nc2ccc(C(F)(C(F)(F)F)C(F)(F)F)cc2C)s1 (stereo not drawn) [compound 353]	A (100)	–	A (100)
CSCC(C)NC(=O)c1c(I)cccc1C(=O)Nc1ccc([Si](C)(C)C)cc1C (stereo not drawn) [compound 368]	A (100)	–	A (100)
CSCC1(NC(=O)c2c(I)cccc2C(=O)Nc2ccc(C(F)(C(F)(F)F)C(F)(F)F)cc2C)CCCC1 [compound 445]	A (100)	–	A (100)
Cc1cc(C(F)(C(F)(F)F)C(F)(F)F)ccc1NC(=O)c1cccc(I)c1C(=O)NC(C)(C)CSCc1ccc(Cl)cc1 [compound 451]	A (100)	–	A (100)
Cc1cc(C(F)(C(F)(F)F)C(F)(F)F)ccc1NC(=O)c1cccc(I)c1C(=O)NC(C)CSC(=O)N(C)C (stereo not drawn) [compound 461]	A (100)	–	D (79-50)
CSCC(C)(C)NC(=O)c1c(I)cccc1C(=O)Nc1ccc(Cc2ccc(Cl)cc2)cc1C [compound 471]	A (100)	–	A (100)
CSCC(C)(C)NC(=O)c1c(I)cccc1C(=O)Nc1ccc(C(O)c2ccc(Cl)cc2)cc1C (stereo not drawn) [compound 472]	A (100)	–	A (100)
CSCC(C)(C)NC(=O)c1c(I)cccc1C(=O)Nc1ccc(Oc2ccc(Cl)cc2)cc1C [compound 473]	A (100)	–	B (99-90)
CSCC(C)(C)NC(=O)c1c(I)cccc1C(=O)Nc1ccc(Oc2cccc(Cl)c2)cc1C [compound 474]	A (100)	–	D (79-50)
CSCC(C)(C)NC(=O)c1c(I)cccc1C(=O)Nc1ccc(Oc2cccc(C#N)c2)cc1C [compound 475]	A (100)	–	A (100)
CSCC(C)(C)NC(=O)c1c(I)cccc1C(=O)Nc1ccc(C(=O)N(C)c2ccc(Cl)cc2)cc1C [compound 480]	A (100)	–	A (100)
